The values that follow come from US10265303B2, “Hyperphenylalaninemia and treatments thereof” (BERGEN TEKNOLOGIOVERFØRING AS, priority 2015, dated 2019).

The target in one experiment is R68S-PAH (Homo sapiens, UniProt P00439, R68S). The note with it: 200 μM, 24 h, 1% DMSO. The protocol:
A similar assay was used to measure PAH activity in cells lysates using 1 mM L-Phe and 200 μM BH4 with 10 min reactions and about 20-90 μg of total protein. Free amino acids and contaminants of low molecular weight were previously removed from the extracts using Zebra Desalt Spin columns (Pierce Biotechnology).
For transient expression of WT and mutant PAH, HEK293 EBNA (Epstein-Barr virus) cells, with low endogenous PAH expression, were grown as above. Cells were grown for 19 h, when they were transfected transiently transfected with […] of pcDNA3-PAH vector (WT or mutant PAH constructs R261Q, R252W, I65T and R68S) using the Lipofectamine system (Life Technologies™) as described by the manufacturer. Compound 53, with and without BH2 (200 μM) was added after 5 h of transfection at 200 μM concentration in 1% DMSO, and further incubated for 24 h, at which time the cells were harvested and stored at −80° C. In all cases a parallel negative control with only 1% DMSO was included. Cell lysates were prepared as indicated above.
Western blot analyses were performed on either cell extracts from permanently expressing or transiently transfected HEK293 cell lysates after SDS-PAGE (10% acrylamide) with 5-10 μg total protein in each lane. […] Neomycin phosphotransferase II was used as a marker of the plasmid transfection efficiency, and GAPDH was used as loading controls. […]

Experiment [1] addresses full-length tetrameric wild-type hPAH (Homo sapiens, UniProt P00439). The note with it: 137.8 μM compound, 2% DMSO. The protocol:
Tetrameric full length wild-type (WT) human PAH (hPAH) and truncated ΔN102/ΔC24-hPAH corresponding to a dimeric form containing the catalytic domain of known crystal structure were recombinantly expressed in E. coli fused to maltose-binding protein and purified by amylose-affinity chromatography and further cleaved and isolated to homogeneity essentially as described [Martinez, A., et al., Biochem. J., 1995. 306: p. 589-597]. Protein concentration was measured in a NanoDrop spectrophotometer (Thermo Scientific) using the absorbance at 280 nm and the theoretical molar extinction coefficient of 49780 M^−1 cm^−1 for WT-PAH and 46675 M^−1 cm^−1 for ΔN102/ΔC24-hPAH.
PAH activity on isolated recombinant enzymes was measured at 37° C. for 1 min with quantification of L-Tyr formed by HPLC with fluorimetric detection, essentially as described [Martinez et al. supra] with the indicated concentrations of the compounds. […] After an equilibration of the plate at 37° C. for 3 min the reaction was initiated by adding 75 μM BH4 (Schircks Laboratories, Jona, Switzerland) in 5 mM DTT and stopped after 1 min by adding 50 μl of 2% (v/v) acetic acid in ethanol (all concentrations referred to a final reaction volume of 50 μl) prior to determination of L-Tyr produced by HPLC with fluorimetric detection (γexcitation=274 nm; γemission=304 nm). Controls with 2% DMSO without compound were routinely assayed as references for data processing. A BRAVO automated liquid handling platform was used in these assays.
The steady-state kinetic parameters were estimated with 0.25 μg hPAH (0.965 μM subunit), 1 mM L-Phe and different BH4 concentrations in the range 0-400 μM, and with 100 μM BH4 and L-Phe (0-1 mM). The saturation curves were fitted to hyperbolic (for BH4) or sigmoidal (for L-Phe) kinetic models with SigmaPlot v. 9.0. (SPSS). Kinetic parameters are presented as mean±SEM obtained from nonlinear regression analysis.

A further experiment concerns the target T1, hPAH (Homo sapiens, UniProt P00439).
T1 sequence (P00439 1-452): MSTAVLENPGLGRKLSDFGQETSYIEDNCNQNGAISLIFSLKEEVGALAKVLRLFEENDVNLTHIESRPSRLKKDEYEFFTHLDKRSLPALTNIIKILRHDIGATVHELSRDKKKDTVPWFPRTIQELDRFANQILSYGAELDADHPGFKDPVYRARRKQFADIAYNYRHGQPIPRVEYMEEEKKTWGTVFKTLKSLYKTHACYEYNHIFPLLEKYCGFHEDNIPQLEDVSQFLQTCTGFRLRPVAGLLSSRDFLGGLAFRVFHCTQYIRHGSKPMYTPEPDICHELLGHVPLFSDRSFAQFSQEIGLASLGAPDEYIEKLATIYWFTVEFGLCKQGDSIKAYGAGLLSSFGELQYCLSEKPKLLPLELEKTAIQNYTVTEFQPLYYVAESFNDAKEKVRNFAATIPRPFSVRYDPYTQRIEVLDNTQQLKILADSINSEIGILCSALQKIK
Put plainly: SPR screening and affinity determination on immobilized hPAH (Biacore T200). The experiment is classed as binding. The note with it: SPR, 25° C., compound 0-500 μM in 5% DMSO; affinities said to be overestimated, relative KD reliable; read-out: KD (μM) ± SER. As for the experimental part:
For detailed determination of binding affinity of Compound 53 and derivatives (FIG. 4) SPR was performed on a Biacore T200 (GE Healthcare Life Sciences) at a temperature of 25° C. A hPAH solution at 0.08 μg/μl in a final volume of 200 μl in acetate buffer pH 5.0 was immobilized onto series S sensor chip CM5 by the standard amine coupling procedure at a flow rate of 30 μl/min and PBS-P+ buffer as running buffer aiming for RU 20000. After the coupling reaction the surface of the sensor chip was washed to eliminate unbound species with HBS buffer (0.01 M NaHepes pH 7.4, 0.15 M NaCI) at steady flow of 20 μl/min for 1 hour until the baseline drift was around 0.05 RU/s; note that an early injection of 40 μl dithiothreitol (DTT) 10 mM in HBS allowed for this reduced washing time.
For the screening, compounds were assayed at a concentration of 200 μM, with 5% DMSO in duplicates, including negative controls with 5% DMSO, positive controls, with 200 μM BH2 and solvent correction was also performed. For KD calculations, a compound concentration 0-500 μM (in 5% DMSO) were applied at otherwise analogous experimental design and analyses were performed using Biacore T200 Evaluation Software, version 2.0 (GE Healthcare Life Sciences).
All the responses from the compounds of the screening were subjected to blank subtraction (negative control 5% DMSO), molecular weight adjustment and solvent correction to account for differences in bulk response. Next a cut-off value for the screening was selected based on the response of the positive control of our experiments: RU BH2+3*SD (2.88+3*1.79=8.27). In this manner, from the 11 derivatives of Compound 53 tested (see FIG. 4) we weeded out those compounds with a lower response than 8.27, namely #53.2, #53.9 and #53.11.
In addition and for the rest of the compounds which continued our workflow, binding affinities were determined and the results are shown in the following table. The selected conditions to measure affinity are selected for high throughput measurements, but the affinities are overestimated though the relative KD for the different compounds are reliable.

R68S-PAH, sequence (P00439 whole entry R68S): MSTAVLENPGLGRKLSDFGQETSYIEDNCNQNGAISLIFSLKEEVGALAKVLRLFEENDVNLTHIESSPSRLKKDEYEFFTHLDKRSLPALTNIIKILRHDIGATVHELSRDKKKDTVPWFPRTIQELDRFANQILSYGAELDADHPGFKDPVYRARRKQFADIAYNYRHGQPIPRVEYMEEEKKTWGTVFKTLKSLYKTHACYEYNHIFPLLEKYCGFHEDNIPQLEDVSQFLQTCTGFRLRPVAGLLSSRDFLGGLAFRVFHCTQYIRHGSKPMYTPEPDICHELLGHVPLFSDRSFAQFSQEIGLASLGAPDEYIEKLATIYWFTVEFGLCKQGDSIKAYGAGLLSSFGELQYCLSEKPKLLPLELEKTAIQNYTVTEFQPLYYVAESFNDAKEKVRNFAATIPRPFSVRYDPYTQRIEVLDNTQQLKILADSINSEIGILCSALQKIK

On to `COc1cc(Cc2cnc(N)nc2N)cc(OC)c1OC` [c53, trimethoprim], for which the “PAH activity, mutant R68S” value at R68S-PAH is on record as “An effect”. Moreover, the “effect on kinetic parameters for L-Phe (Vmax and S0.5)” value in experiment [1] (100 μM BH4) was “does not affect the kinetic parameters for the substrate”. In addition, in experiment [1] (1 mM L-Phe), the “effect on Vmax and Km for BH4” value is “decreased Vmax and Km for the cofactor”; the “mode of inhibition towards BH4” value was “uncompetitive inhibition”. In addition, on hPAH, the Kd is 58.5 ± 35.8 µM.
